Data: patent US9493478B2, “Fused ring compound containing furan or salt thereof and pharmaceutical composition comprising same” (YUHAN CORPORATION, priority 2012, dated 2016)

Tests used:
Format in all cases: biochemical
PI3Kδ (p110δ/p85α)(h) = PI3Kδ (p110δ/p85α)(h) (Homo sapiens, UniProt O00329); assay: Assay for phosphatidylinositol 3-kinase delta (PI3Kδ) activity, PI3K-HTRF kit; conditions: TR-FRET; enzyme 0.725 μg/ml, 10 μM PIP2, 10 μM ATP
PI3Kα (p110α/p85α)(h) = PI3Kα (p110α/p85α)(h) (Homo sapiens, UniProt P42336); assay: Assay for phosphatidylinositol 3-kinase alpha (PI3Kα) activity, PI3K-HTRF kit; conditions: TR-FRET; enzyme 0.3625 μg/ml, 10 μM PIP2, 10 μM ATP
PI3Kγ (p120γ)(h) = PI3Kγ (p120γ)(h) (Homo sapiens, UniProt P48736); assay: Assay for phosphatidylinositol 3-kinase gamma (PI3Kγ) activity, PI3K-HTRF kit; conditions: TR-FRET; enzyme 1.45 μg/ml, 10 μM PIP2, 10 μM ATP
How it was run: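 Recombinant PI3Kγ (1.45 μg/ml final) preincubated ~10 min with compound, then reacted with 10 μM PIP2 and 10 μM ATP for 90 min at room temperature. PIP3 detected by HTRF (biotin-PIP3/Eu-PH domain/APC), 665/620 nm ratio after 6 h; IC50 from inhibition relative to controls.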

PI3K β (p110β/p85α)(h) = PI3K β (p110β/p85α)(h) (Homo sapiens, UniProt P42338); assay: Assay for phosphatidylinositol 3-kinase beta (PI3Kβ) activity, PI3K-HTRF kit; conditions: TR-FRET; enzyme 0.725 μg/ml, 10 μM PIP2, 10 μM ATP
Chain of PI3K β (p110β/p85α)(h) (P42338 whole entry): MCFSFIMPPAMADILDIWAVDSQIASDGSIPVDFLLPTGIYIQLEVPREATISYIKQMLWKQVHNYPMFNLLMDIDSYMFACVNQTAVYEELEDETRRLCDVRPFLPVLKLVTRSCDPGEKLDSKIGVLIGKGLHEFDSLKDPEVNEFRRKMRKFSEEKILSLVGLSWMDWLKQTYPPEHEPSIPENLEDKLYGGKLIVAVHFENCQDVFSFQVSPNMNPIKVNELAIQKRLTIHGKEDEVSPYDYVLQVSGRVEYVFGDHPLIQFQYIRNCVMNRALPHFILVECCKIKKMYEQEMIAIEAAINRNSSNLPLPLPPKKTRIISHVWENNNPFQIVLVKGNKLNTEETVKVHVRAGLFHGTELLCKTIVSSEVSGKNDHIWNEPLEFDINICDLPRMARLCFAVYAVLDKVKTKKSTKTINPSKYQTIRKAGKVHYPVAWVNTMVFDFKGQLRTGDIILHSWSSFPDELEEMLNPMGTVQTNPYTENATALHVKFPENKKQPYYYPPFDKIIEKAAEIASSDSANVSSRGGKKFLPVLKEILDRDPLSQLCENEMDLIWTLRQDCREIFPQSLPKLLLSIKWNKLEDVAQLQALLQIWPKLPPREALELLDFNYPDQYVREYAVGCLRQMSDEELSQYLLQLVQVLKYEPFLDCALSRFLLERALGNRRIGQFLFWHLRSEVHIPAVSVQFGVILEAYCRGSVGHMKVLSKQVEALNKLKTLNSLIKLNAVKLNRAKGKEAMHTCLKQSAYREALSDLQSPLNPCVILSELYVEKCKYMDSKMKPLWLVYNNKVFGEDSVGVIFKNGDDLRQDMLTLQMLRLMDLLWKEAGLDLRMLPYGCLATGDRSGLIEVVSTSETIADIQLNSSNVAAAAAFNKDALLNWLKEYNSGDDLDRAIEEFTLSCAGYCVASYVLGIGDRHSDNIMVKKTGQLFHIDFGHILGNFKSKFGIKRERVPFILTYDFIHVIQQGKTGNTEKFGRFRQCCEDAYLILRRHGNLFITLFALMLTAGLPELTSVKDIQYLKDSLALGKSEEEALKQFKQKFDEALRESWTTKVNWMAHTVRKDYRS
Chain of PI3K β (p110β/p85α)(h) (P27986 whole entry partner): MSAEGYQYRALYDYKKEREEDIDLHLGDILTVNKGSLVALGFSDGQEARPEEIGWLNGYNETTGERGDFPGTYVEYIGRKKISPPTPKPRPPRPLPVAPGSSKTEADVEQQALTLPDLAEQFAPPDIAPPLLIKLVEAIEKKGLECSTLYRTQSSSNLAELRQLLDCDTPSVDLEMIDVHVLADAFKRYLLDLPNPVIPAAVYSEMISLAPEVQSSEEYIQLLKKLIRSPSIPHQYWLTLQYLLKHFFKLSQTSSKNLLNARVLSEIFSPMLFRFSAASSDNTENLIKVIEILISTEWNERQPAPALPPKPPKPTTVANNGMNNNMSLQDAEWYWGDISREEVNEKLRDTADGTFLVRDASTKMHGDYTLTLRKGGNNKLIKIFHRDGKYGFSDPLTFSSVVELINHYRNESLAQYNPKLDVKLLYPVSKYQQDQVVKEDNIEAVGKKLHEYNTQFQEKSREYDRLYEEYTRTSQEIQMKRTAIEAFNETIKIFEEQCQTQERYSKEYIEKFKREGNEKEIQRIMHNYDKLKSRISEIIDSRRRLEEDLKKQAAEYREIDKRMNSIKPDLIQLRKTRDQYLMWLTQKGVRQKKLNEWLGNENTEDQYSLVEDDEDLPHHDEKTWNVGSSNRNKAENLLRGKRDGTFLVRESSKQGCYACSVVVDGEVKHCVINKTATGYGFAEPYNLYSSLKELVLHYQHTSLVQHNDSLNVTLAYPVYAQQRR

Chain of PI3Kγ (p120γ)(h) (P48736 whole entry, the tested form may be a part): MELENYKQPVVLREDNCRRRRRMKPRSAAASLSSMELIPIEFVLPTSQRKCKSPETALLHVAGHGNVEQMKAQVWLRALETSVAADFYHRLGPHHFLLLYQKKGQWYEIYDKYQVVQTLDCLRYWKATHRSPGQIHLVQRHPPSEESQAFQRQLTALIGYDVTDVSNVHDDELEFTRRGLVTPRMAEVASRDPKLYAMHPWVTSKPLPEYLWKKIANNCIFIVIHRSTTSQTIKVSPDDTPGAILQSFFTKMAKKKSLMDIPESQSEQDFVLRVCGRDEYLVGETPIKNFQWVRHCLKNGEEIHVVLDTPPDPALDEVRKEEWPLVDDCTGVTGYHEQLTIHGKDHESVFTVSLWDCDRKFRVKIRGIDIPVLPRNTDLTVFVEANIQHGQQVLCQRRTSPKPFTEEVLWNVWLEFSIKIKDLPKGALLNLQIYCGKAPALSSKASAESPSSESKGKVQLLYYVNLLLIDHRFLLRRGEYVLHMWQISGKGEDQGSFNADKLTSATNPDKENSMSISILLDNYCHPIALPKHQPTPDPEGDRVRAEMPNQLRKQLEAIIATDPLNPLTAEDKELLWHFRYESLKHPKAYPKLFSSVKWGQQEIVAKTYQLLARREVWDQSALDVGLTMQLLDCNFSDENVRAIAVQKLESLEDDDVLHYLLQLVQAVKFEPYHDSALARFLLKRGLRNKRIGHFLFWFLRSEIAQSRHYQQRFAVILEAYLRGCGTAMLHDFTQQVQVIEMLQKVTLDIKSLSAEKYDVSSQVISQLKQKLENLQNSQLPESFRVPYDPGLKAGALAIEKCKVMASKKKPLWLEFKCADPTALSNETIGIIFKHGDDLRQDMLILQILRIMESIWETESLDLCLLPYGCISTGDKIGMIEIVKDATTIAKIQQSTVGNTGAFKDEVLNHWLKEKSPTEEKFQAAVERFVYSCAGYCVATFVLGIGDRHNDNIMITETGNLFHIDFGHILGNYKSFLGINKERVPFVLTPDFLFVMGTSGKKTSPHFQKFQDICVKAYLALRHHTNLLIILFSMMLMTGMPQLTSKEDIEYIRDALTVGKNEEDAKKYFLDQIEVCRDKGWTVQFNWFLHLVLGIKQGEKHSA
Chain of PI3Kα (p110α/p85α)(h) (P42336 whole entry): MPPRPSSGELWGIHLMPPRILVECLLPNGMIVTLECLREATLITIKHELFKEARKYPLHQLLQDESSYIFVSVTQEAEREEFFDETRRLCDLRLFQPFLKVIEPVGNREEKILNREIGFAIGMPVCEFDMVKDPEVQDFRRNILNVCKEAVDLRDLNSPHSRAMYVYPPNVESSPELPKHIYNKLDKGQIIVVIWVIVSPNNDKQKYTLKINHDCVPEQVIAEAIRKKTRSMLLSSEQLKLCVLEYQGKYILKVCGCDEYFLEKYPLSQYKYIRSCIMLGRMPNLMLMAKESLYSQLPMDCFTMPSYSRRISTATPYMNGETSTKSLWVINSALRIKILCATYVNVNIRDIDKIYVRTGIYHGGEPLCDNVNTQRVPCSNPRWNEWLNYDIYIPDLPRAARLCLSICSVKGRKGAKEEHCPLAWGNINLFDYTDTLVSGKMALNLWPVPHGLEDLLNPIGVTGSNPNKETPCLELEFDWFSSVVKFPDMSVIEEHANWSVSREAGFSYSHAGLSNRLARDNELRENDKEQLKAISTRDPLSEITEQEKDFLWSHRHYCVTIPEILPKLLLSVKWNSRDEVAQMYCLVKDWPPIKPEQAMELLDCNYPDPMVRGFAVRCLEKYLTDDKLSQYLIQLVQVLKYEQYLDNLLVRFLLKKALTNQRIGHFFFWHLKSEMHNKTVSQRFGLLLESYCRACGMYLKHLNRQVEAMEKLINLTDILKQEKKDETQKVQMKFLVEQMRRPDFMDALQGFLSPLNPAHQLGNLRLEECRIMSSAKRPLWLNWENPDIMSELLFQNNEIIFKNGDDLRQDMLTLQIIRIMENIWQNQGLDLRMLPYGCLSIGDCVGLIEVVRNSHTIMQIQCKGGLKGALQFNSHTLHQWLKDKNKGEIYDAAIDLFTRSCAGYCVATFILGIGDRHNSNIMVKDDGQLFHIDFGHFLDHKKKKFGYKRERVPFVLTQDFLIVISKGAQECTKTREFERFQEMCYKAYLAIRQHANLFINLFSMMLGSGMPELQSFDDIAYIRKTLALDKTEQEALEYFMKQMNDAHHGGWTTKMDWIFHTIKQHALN
Chain of PI3Kα (p110α/p85α)(h) (P27986 whole entry partner): as the sequence (P27986 whole entry partner) above
Chain of PI3Kδ (p110δ/p85α)(h) (O00329 whole entry): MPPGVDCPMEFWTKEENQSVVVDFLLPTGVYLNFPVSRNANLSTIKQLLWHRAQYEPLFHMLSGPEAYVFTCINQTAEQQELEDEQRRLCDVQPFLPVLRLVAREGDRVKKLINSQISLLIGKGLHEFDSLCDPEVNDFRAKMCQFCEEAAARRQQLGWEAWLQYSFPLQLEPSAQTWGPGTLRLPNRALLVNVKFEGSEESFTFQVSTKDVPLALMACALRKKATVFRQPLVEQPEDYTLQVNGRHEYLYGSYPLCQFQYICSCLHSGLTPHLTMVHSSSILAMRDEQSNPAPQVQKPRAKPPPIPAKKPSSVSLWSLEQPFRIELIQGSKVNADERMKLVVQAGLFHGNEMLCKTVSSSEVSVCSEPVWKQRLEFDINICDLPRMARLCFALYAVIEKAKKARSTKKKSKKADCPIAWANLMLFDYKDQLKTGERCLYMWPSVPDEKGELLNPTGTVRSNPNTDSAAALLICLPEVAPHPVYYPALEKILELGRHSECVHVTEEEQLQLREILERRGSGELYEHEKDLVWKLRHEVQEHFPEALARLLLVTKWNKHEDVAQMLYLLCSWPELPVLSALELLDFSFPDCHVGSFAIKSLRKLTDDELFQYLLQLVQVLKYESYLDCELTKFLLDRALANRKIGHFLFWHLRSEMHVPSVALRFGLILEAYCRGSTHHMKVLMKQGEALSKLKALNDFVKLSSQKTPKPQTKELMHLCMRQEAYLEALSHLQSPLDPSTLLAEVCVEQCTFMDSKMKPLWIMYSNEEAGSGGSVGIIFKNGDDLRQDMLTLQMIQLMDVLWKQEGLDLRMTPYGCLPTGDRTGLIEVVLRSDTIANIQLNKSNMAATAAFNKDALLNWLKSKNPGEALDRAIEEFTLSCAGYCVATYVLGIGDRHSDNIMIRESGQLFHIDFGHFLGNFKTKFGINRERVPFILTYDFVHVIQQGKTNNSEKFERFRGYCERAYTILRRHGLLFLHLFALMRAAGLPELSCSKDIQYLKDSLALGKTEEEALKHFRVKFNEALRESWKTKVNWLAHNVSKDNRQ
Chain of PI3Kδ (p110δ/p85α)(h) (P27986 whole entry partner): as the sequence (P27986 whole entry partner) above

Row | IC50 (PI3Kδ (p110δ/p85α)(h)) | IC50 (PI3Kα (p110α/p85α)(h)) | IC50 (PI3Kγ (p120γ)(h)) | IC50 (PI3K β (p110β/p85α)(h)) | Compound
1 | 41 nM | 3 nM | 10 nM | 468 nM | COC(=O)c1ccccc1C#Cc1cncc2cc(/C=C3\SC(=S)NC3=O)oc12 [Example 558, (Z)-Methyl 2-([2-{(4-oxo-2-thioxothiazolidin-5-ylidene)methyl}furo[3,2-c]pyridin-7-yl]ethynyl)benzoate]
2 | 143 nM | 1 nM | 7 nM | 466 nM | Cc1ccccc1C#Cc1cncc2cc(/C=C3\SC(=O)NC3=O)oc12 [Example 454, (Z)-5-[{7-(o-Tolylethynyl)furo[3,2-c]pyridin-2-yl}methylene]thiazolidine-2,4-dione]
3 | 2230 nM | 14 nM | 37 nM | 3720 nM | O=C1NC(=O)/C(=C/c2cc3cncc(C#Cc4ccc(OC(F)(F)F)cc4)c3o2)S1 [Example 533]
4 | > 10000 nM | 67 nM | 78 nM | 8620 nM | CC(C)c1ccccc1C#Cc1cncc2cc(/C=C3\SC(=S)NC3=O)oc12 [Example 554, (Z)-5-([7-{(2-Isopropylphenyl)ethynyl}furo[3,2-c]pyridin-2-yl]methylene)-2-thioxothiazolidin-4-one]
5 | > 10000 nM | 2 nM | 10 nM | > 10000 nM | O=C1NC(=O)/C(=C/c2cc3cncc(C#Cc4cccc(C(F)(F)F)c4)c3o2)S1 [Example 441, (Z)-5-{(7-[{3-(Trifluoromethyl)phenyl}ethynyl]furo[3,2-c]pyridin-2-yl)methylene}thiazolidine-2,4-dione]
6 | 37 nM | 2 nM | 17 nM | 5090 nM | COc1ccc(C#Cc2cncc3cc(/C=C4\SC(=O)NC4=O)oc23)cc1OC [Example 469, (Z)-5-([7-{(3,4-Dimethoxyphenyl)ethynyl}furo[3,2-c]pyridin-2-yl]methylene)thiazolidine-2,4-dione]
7 | 9300 nM | 10 nM | 19 nM | > 10000 nM | CS(=O)(=O)c1c(F)cc(-c2cncc3cc(/C=C4\SC(=S)NC4=O)oc23)cc1F [Example 332, (Z)-5-([7-{3,5-Difluoro-4-(methylsulfonyl)phenyl}furo[3,2-c]pyridin-2-yl]methylene)-2-thioxothiazolidin-4-one]
8 | > 10000 nM | 43 nM | 9 nM | > 10000 nM | CSc1ccc(-c2cncc3cc(/C=C4\SC(=O)NC4=O)oc23)cc1 [Example 23, (Z)-5-([7-{4-(Methylthio)phenyl}furo[3,2-c]pyridin-2-yl]methylene)thiazolidine-2,4-dione]
9 | 563 nM | 1 nM | 3 nM | 77 nM | COc1cc(-c2cncc3cc(/C=C4\SC(=S)NC4=O)oc23)cc(Cl)c1O [Example 217, (Z)-5-[{7-(3-Chloro-4-hydroxy-5-methoxyphenyl)furo[3,2-c]pyridin-2-yl}-methylene]-2-thioxothiazolidin-4-one]
10 | 493 nM | 1 nM | 16 nM | 5920 nM | COC(=O)c1cccc(C#Cc2cncc3cc(/C=C4\SC(=S)NC4=O)oc23)c1 [Example 569, (Z)-Methyl 3-([2-{(4-oxo-2-thioxothiazolidin-5-ylidene)methyl}furo[3,2-c]pyridin-7-yl]ethynyl)benzoate]
11 | 924 nM | 41 nM | 10 nM | 1430 nM | Nc1ccc(-c2cncc3cc(/C=C4\SC(=S)NC4=O)oc23)cc1C(F)(F)F [Example 361, (Z)-5-([7-{4-Amino-3-(trifluoromethyl)phenyl}furo[3,2-c]pyridin-2-yl]methylene)-2-thioxothiazolidin-4-one]

More lines, now with the values behind:

Row | Compound | IC50 (PI3Kδ (p110δ/p85α)(h)) | IC50 (PI3Kα (p110α/p85α)(h)) | IC50 (PI3Kγ (p120γ)(h)) | IC50 (PI3K β (p110β/p85α)(h))
12 | 5-[{7-(p-Tolylethynyl)furo[3,2-c]pyridin-2-yl}methyl]thiazolidine-2,4-dione [Example 520] | > 10000 nM | 15 nM | 11 nM | 9740 nM
13 | CCOc1ccc(-c2cncc3cc(/C=C4\SC(=O)NC4=O)oc23)cc1C(F)(F)F [Example 94, (Z)-5-([7-{4-Ethoxy-3-(trifluoromethyl)phenyl}furo[3,2-c]pyridin-2-yl]methylene)thiazolidine-2,4-dione] | > 10000 nM | 6 nM | 8 nM | > 10000 nM
14 | O=C1NC(=O)/C(=C/c2cc3cncc(-c4cccc(OCc5ccccc5)c4)c3o2)S1 [Example 6, (Z)-5-([7-{3-(Benzyloxy)phenyl}furo[3,2-c]pyridin-2-yl]methylene)thiazolidine-2,4-dione] | 2350 nM | 2 nM | 14 nM | 3 nM
15 | O=C1NC(=O)/C(=C/c2cc3cncc(-c4ccc5c(c4)OCO5)c3o2)S1 [Example 36, (Z)-5-[{7-(Benzo[d][1,3]dioxol-5-yl)furo[3,2-c]pyridin-2-yl}methylene]thiazolidine-2,4-dione] | > 10000 nM | 86 nM | 154 nM | 14 nM
16 | Cc1cc(-c2cncc3cc(/C=C4\SC(=O)NC4=O)oc23)ccc1S(=O)(=O)NC(C)(C)C [Example 310, (Z)—N-tert-Butyl-4-[2-{(2,4-dioxothiazolidin-5-ylidene)methyl}furo[3,2-c]pyridin-7-yl]-2-methylbenzenesulfonamide] | 220 nM | 11 nM | 12 nM | 1940 nM
17 | 2-Thioxo-5-[{7-(m-tolylethynyl)furo[3,2-c]pyridin-2-yl}methyl]thiazolidin-4-one [Example 546] | > 10000 nM | 360 nM | 3 nM | 5500 nM
18 | O=C1NC(=O)/C(=C/c2cc3cncc(-c4ccc(F)cc4F)c3o2)S1 [Example 2, (Z)-5-[{7-(2,4-Difluorophenyl)furo[3,2-c]pyridin-2-yl}methylene]thiazolidine-2,4-dione] | 117 nM | 35 nM | 654 nM | 208 nM
19 | COc1ccc(-c2cncc3cc(/C=C4\SC(=O)NC4=O)oc23)cc1OC [Example 33, (Z)-5-[{7-(3,4-Dimethoxyphenyl)furo[3,2-c]pyridin-2-yl}methylene]thiazolidine-2,4-dione] | 37 nM | 8 nM | 9 nM | 77 nM
20 | COc1ccc(-c2cncc3cc(/C=C4\SC(=O)NC4=O)oc23)cn1 [Example 30, (Z)-5-[{7-(6-Methoxypyridin-3-yl)furo[3,2-c]pyridin-2-yl}methylene]thiazolidine-2,4-dione] | 460 nM | 40 nM | 6 nM | 1370 nM
21 | O=C1NC(=O)/C(=C/c2cc3cncc(C(=O)NC4CCCCC4)c3o2)S1 [Example 422, (Z)—N-Cyclohexyl-2-{(2,4-dioxothiazolidin-5-ylidene)methyl}furo[3,2-c]pyridine-7-carboxamide] | 1140 nM | 31 nM | 204 nM | 1230 nM
22 | CN1CCN(Cc2ccc(-c3cncc4cc(/C=C5\SC(=O)NC5=O)oc34)cc2)CC1 [Example 134, (Z)-5-{(7-[4-{(4-Methylpiperazin-1-yl)methyl}phenyl]furo[3,2-c]pyridin-2-yl)methylene}thiazolidine-2,4-dione] | 54 nM | 95 nM | 344 nM | > 1000 nM
